Laboratory results reported in US20170218375A1, “MORPHOLINOS, MORPHOLINO UPREGULATING, AND ASSOCIATED METHODS” (University of Utah Research Foundation, priority 2011, published 2017).

Assays:
sVEGFR2 mRNA [1] = assay: RT-PCR analysis of sVEGFR2 mRNA from HUVECs two days after morpholino transfection; format: cell-based, human
Protocol: To limit the possibility of genomic contamination, VEGFR2exon10_F (designed in exon10) and VEGFR2_R (designed in intron13) were used for primers to detect sVEGFR2.
(§1) Each morpholino oligomer was purchased from Gene Tools (Philomath, Oreg.). The sequences of each morpholino oligomer and primers for PCR are listed in supplemental Table. HUVECs (Lonza, Walkersville, Md.) were cultured in EBM with EGM SingleQuot Kit supplements and growth factors according to the manufacturer's instructions (Lonza, Walkersville, Md.). MS-1 cells, a mouse endothelial cell line (ATCC, Manassas, Va.) were cultured in 5% FBS/DMEM. Morpholino oligomers were delivered to the nucleus by nucleofection (Amaxa, Gaithersburg, Md.) with a Basic Nucleofector Kit for Primary Mammalian Endothelial Cells (Amaxa, Gaithersburg, Md.) using program A-034 for HUVEC and MS-1 cells. For each nucleofection, 1×10^6 cells were used and plated on a 6-well plate. After 2 days of culture, cells were trypsinized and total RNA was extracted using a RNeasy mini kit (Qiagen, Valencia, Calif.) with DNaseI treatment. Detection of mbVEGFR2 was achieved by flow cytometry. […] The cells were washed three times and fluorescence was detected by a FACScan Analyzer (BD Biosciences, San Jose, Calif.). […]

sVEGFR2 mRNA [2] = assay: Real-time PCR of sVEGFR2 mRNA after morpholino transfection of HUVECs; format: cell-based, human; settings: GAPDH as internal control, compared with DPBS transfected HUVECs, p<0.001
Text: (§2) In addition, two polyadenylation sites (AAUAAA) are found in intron13 (FIG. 1A). […] FIG. 1(a) illustrates a schematic design of anti-sense morpholino oligomers. FIGS. 1(b, c) show the results of mbVEGFR2 and sVEGFR2 mRNA expression quantified by real-time PCR after morpholino transfection. All results are normalized by GAPDH expression and compared with DPBS transfected HUVECs as 1. p: risk factor by two-tail student's t-test. *: p<0.05, **p<0.01, ***p<0.001 compared with DPBS transfected HUVECs; n=6 for all groups; Error bar is ±s.e.m. It is thus concluded that human polyadenylation of sVEGFR2 mRNA occurs in intron13, and thus the present disclosure examines whether disruption of splicing between exon13-exon14 upregulates sVEGFR2.
(§3) It was discovered that VEGFR2_MOe13 downregulates mbVEGFR2 mRNA by 40% (p<0.05), while VEGFR2_MOi13 upregulates mbVEGFR2 mRNA by 2.5-fold (p<0.01) compared with DPBS transfected HUVECs.
(§4) Each morpholino oligomer was purchased from Gene Tools (Philomath, Oreg.). […] The cells were washed three times and fluorescence was detected by a FACScan Analyzer (BD Biosciences, San Jose, Calif.). […]
(§5) cDNAs were synthesized from 400 ng total RNA using Omniscript RT kit (Qiagen, Valencia, Calif.) and Oligo-dT primer(dT20) according to the manufacturer's instructions. Real-time PCR was performed using QuantiTect SYBR Green PCR Kit (Qiagen, Valencia, Calif.) and 1 μl of cDNA. […]

mbVEGFR2 protein [3] = assay: Flow cytometry analysis of mbVEGFR2 protein on cell surfaces of transfected HUVECs; format: cell-based, human; settings: flow cytometry three days after nucleofection, DPBS 83.3%
Protocol: (§6) Next, mbVEGFR2 protein expression by western blot was examined. VEGFR2_MOe13 or a combination of VEGFR2_MOe13 and VEGFR2_MOi13 reduced mbVEGFR2 protein expression compared to DPBS and STD_MO. […] (f) HUVECs stained with only secondary antibody were used as a negative control. […] To confirm sVEGFR2 protein expression, western blot from culture medium of morpholino transfected HUVECs was performed using an antibody recognizing the extracellular domains of VEGFR2 (FIG. 5). […] It is known that mbVEGFR2 can be glycosylated, thus increasing the molecular weight from 150 kD to 230 kD. In addition, sVEGFR2 has been detected at 160 kDa, although it has not reported whether this was derived from alternative polyadenylation or proteolytic cleavage from mbVEGFR2. Based on this information, it is likely that sVEGFR2 protein, upregulted following morpholino treatment, is glycosylated with an observed molecular weight of 150 kDa.
Each morpholino oligomer was purchased from Gene Tools (Philomath, Oreg.). The sequences of each morpholino oligomer and primers for PCR are listed in supplemental Table. HUVECs (Lonza, Walkersville, Md.) were cultured in EBM with EGM SingleQuot Kit supplements and growth factors according to the manufacturer's instructions (Lonza, Walkersville, Md.). […] The cells were washed three times and fluorescence was detected by a FACScan Analyzer (BD Biosciences, San Jose, Calif.). […]

sVEGFR2 protein = assay: Western blot of culture medium of morpholino transfected HUVECs against VEGFR2 extracellular domain; format: cell-based, human; settings: three days, antibody to VEGFR2 extracellular domains
Protocol: as §6
(§7) After nucleofection, cells were cultured in a 75 cm^2 flask for three days without changing the medium. After three days the media was collected and cell debris was removed by centrifugation. Trichloroacetic acid (20% (w/v), Fisher Scientific, Pittsburgh, Pa.) was added to concentrate the supernatant (final concentration of trichloroacetic acid was 10%). Cells were incubated in trichloroacetic acid for 30 minutes on ice and then centrifuged at ×12000 g 4° C. for 5 minutes. […]

mbVEGFR2 mRNA = assay: Real-time PCR of mbVEGFR2 mRNA after morpholino transfection of HUVECs; format: cell-based, human; settings: GAPDH as internal control, compared with DPBS transfected HUVECs
Text: as §2, §3, §4, §5

sVEGFR2 mRNA [4] = assay: Long-range 3'RACE from morpholino transfected HUVECs; format: cell-based, human
Protocol: To determine the 3′UTR of sVEGFR2 mRNA induced by morpholinos, long-range 3′RACE was performed (FIG. 5C). A strong band (˜1600 bp) was detected from VEGFR2_MOe13 and the combination of VEGFR2_MOe13 and VEGFR2_MOi13 transfected HUVECs. Based on the sequence of this band, sVEGFR2 mRNA utilizes a polyadenylation site located in 1403-1408 nt range of intron13 (FIG. 6B). […] These sequence components are similar to typical polyadenylation signals, which contain a cleavage site 10-35 nt downstream of AAUAAA and a GU-rich region 14-70 nt downstream of AAUAAA. […] Corneal tissue is known to predominantly express sVEGFR2.
cDNA was synthesized from total RNA extracted from morpholino transfected HUVEC using a cloning_R1 (Table 1). PCR was performed using a LongRange PCR Kit (Qiagen, Valencia, Calif.). PCR conditions: 93° C. for 3 minutes, 35 cycles of 93° C. for 15 seconds, 55° C. for 30 seconds and 68° C. for 6 minutes using VEGFR2_F1 and cloning_R2. After 1% agarose gel electrophoresis, specific bands were excised and subjected to DNA sequencing. To determine endogenous 3′UTR of sVEGFR2 mRNA, total RNA extracted from one human cornea which was obtained from the Utah Lions Eye Bank. cDNA was synthesized with the same above method, and PCR was performed using cloning_F(1042-1061) which is designed in human VEGFR2 intron13 and cloning_R2.

mbVEGFR2 protein [5] = assay: Western blot for mbVEGFR2 from morpholino transfected HUVECs; format: cell-based, human; settings: compared to DPBS and STD_MO
Protocol: as §6, §7

[6] = test system: laser-induced choroidal neovascularization (CNV); assay: Laser-induced choroidal neovascularization (CNV) in mouse; format: in vivo; settings: 2 μl intravitreously day 1 and day 4: 100 ng/μl moVEGFR2_MOe13, 500 ng/μl anti-mouse VEGF-A IgG, 2 ng/μl SU1498, CNV volume day 7
Protocol: It was also examined whether moVEGFR2_MOe13 inhibits laser-induced choroidal neovascularization (CNV). Each morpholino or DPBS was injected intravitreously on day 1 and day 4 after laser photocoagulation, and laser CNV volumes were examined on day 7. […] Vessel endothelial cells were stained with Alexa fluor488 conjugated isolectin GS-IB4. […] After photocoagulation, on day 1 and day 4, 2 ul of 100 ng/μl STD_MO, 500 ng/μl Goat IgG (AB-108-C, R&D Systems, Minneapolis, Minn.), 100 ng/μl moVEGFR2_MOe13, 500 ng/μl Goat Anti-mouse VEGF-A IgG (AF-493-NA, R&D Systems, Minneapolis, Minn.) or 2 ng/μl SU1498 (572888, EMD chemicals, Gibbstown, N.J.) was injected intravitreously. On day 7, CNV volumes were measured by confocal microscope. n=14-20 for each group. Risk factors (p-value) were calculated by two-tail student's t-test (*: p<0.05, **p<0.01). Error bar is ±s.e.m.
as §1

Row | Molecule | detection of sVEGFR2 mRNA by RT-PCR (sVEGFR2 mRNA [1]) | increase of sVEGFR2 mRNA (sVEGFR2 mRNA [2]) [fold] | mbVEGFR2 positive cells (mbVEGFR2 protein [3]) [%] | sVEGFR2 protein in culture medium by western blot (sVEGFR2 protein) | upregulation of mbVEGFR2 mRNA (mbVEGFR2 mRNA; p<0.01) [fold] | 3'RACE band (~1600 bp) corresponding to sVEGFR2 mRNA using the polyadenylation site in intron13 (sVEGFR2 mRNA [4]) | mbVEGFR2 protein expression by western blot (mbVEGFR2 protein [5]) | downregulation of mbVEGFR2 mRNA (mbVEGFR2 mRNA; p<0.05) [%] | suppression of CNV compared with anti-VEGF-A IgG and SU1498 (FIG. 9) [6]
1 | 5′-CCACACGCTctagacacacaaaaag-3′ (antisense CCACACGCTCTAGACACACAAAAAG; all phosphorodiamidate morpholino (PMO)) [VEGFR2_MOi13, antisense morpholino oligomer corresponding to the junction of intron13-exon14 of human VEGFR2] | detected | 4.4 | 82.5 | could not detect | 2.5 | did not show a strong band | – | – | –
2 | 5′-gatccagaattgtctccctacCTAG-3′ (antisense GATCCAGAATTGTCTCCCTACCTAG; all phosphorodiamidate morpholino (PMO)) [VEGFR2_MOe13, antisense morpholino oligomer corresponding to the junction of exon13-intron13 of human VEGFR2] | detected | 17 | 40.7 | 150 kD bands were detected | – | strong band | reduced | 40 | –
3 | CC(C)c1cc(/C=C(\C#N)C(=O)NCCCc2ccccc2)cc(C(C)C)c1O [SU1498, reference compound] | – | – | – | – | – | – | – | – | inhibitory effects
